Reference: article PMC6384703, “Astilbin Inhibits the Activity of Sortase A from Streptococcus mutans” (Molecules, 2019)

Target: T1, sortase A (SrtA) (Streptococcus mutans, UniProt Q8CM62)
T1 construct: His-tagged recombinant SrtA from a 741 bp DNA fragment (pET28SmsrtA), S. mutans ATCC 25175
Test: FRET assay with purified SrtA and fluorescent peptide Abz-LPATG-Dap(Dnp)-NH2; supported by mutants with reduced inhibition
Format: biochemical

T1 sequence (Q8CM62 entry or part of it): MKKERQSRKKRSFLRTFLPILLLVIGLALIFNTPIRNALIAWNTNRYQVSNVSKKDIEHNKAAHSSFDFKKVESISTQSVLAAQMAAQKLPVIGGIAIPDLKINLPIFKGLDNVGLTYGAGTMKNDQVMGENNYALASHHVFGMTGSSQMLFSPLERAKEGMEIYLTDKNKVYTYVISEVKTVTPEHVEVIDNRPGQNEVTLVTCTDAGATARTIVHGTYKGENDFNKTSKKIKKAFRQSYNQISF

C[C@@H]1O[C@@H](O[C@H]2C(=O)c3c(O)cc(O)cc3O[C@@H]2c2ccc(O)c(O)c2)[C@H](O)[C@H](O)[C@H]1O [astilbin]
IC50: 16.7 µM
